Test results published in patent US6548507B1, “Medical use” (SmithKline Beecham Corporation, priority 1999, dated 2003).

Key:
[1] = tested on: sensory neuronal apoptosis; assay: Apoptosis in L4 and L5 dorsal root ganglia after chronic constriction injury (CCI), Hoechst 33342 staining; format: in vivo, rat; conditions: for number of neurones undergoing apoptosis (FIG. 2): CCI rats, 10 mg/kg, time points day 7, 21 and 30, vs vehicle treated animals; for sensory neuronal apoptosis / glial apoptosis: adult male CCI rats; for sensory neuronal apoptosis: 10 mg/kg dosed day 12 to day 25, at day 30 post surgery; for glial apoptosis: 10 mg/kg dosed day 12 to day 25, results not shown
Experimental: Adult male random hooded rats were either chronic constriction injury (CCI) or sham operated at day 0. Dosing with vehicle, 4030W92 (10 mg/kg) or 4082W92 (10 mg/kg) was from day 12 to day 25. At time points 7, 14, 21, 27 and 30 days post surgery animals (n=3 per group except for naives) were sacrificed by exsanguination after behavioural testing as described below. Naive animals were all sacrificed 30 days post surgery. L4 and L5 dorsal root ganglias were removed and placed in a freezing medium for sectioning. Sections (14 μm) were cut using a freezing cryostat (Leica) and placed on poly (L) lysine coated slides. These were post-fixed in 4% paraformaldehyde (Sigma) for 20 minutes, dehydrated through alcohol and kept at −80° until required. On the day of staining, the sections were rehydrated through alcohol and placed in phosphate buffered saline (PBS) for at least 15 minutes. They were incubated with the fluorescent nuclear stain Hoechst 33342 (1 μg/ml) (Sigma) for 4 minutes and then washed extensively with PBS. After drying, the slides were mounted with Vectashield mounting medium (Vector Labs) and coverslipped. The slides could be kept in the dark for up to 6 weeks without fading.
The sections were studied under the microscope (Leica) at 400× for morphological signs of apoptosis—nuclear condensation, membrane blebbing and presence of apoptotic bodies (Trump 1997 supra). Cells were assigned as neurones or glia depending on their size, location, and general morphology. Four fields from each section were selected at random, the number of apoptotic cells and total number of cells was counted in each and then mean figures for each group were calculated. This analysis was carried out blind. […] Glial apoptosis was unaffected (results not shown).

[2] = tested on: mechanical hypersensitivity; assay: CCI-induced decrease in mechanical paw withdrawal threshold (algesymeter); format: in vivo, rat; conditions: CCI rats, drug administered from day 12, algesymeter
Text: (§1) Under isoflurane anaesthesia, the common left sciatic nerve of male Random Hooded rats (180-200 g) was exposed at mid-thigh level. Four ligatures of chromic gut (4.0) were tied loosely around the nerve with a 1 mm spacing between each. The wound was then closed and secured with suture clips. The surgical procedure was identical for the sham operated animals except the sciatic nerve was not ligated. The rats were allowed a period of seven days to recover from the surgery before behavioural testing began.
The effect on Chronic Constriction Injury-induced decrease in mechanical paw withdrawal threshold was measured using an algesymeter (Randall L O, Selitto J J. A method for measurement of analgesic activity on inflamed tissue. Arch. Int. Pharmacodyn. 1957; 61:409-419). In brief, from 7 days post surgery onwards every 2 or 3 days the animals were tested for mechanical hypersensitivity by applying an increasing weight (16 gram per second) to the dorsal surface of each hindpaw until the rat attempted to remove the paw. The increasing weight was halted at this point and the weight recorded and expressed as mechanical paw withdrawal threshold. The maximum weight applied in this model was 250 gram. Drug was administered once the hypersensitivity was maximal which in this case was at day 12.

[3] = tested on: apoptotic neurons in L5 dorsal root ganglions; assay: Neuronal apoptosis after sciatic nerve axotomy in the neonatal rat (TUNEL combined with Hoechst 33342 and immunohistochemistry); format: in vivo; conditions: single pre-emptive injection 10 mg/kg s/c, observed at 24 hours, vs vehicle treated controls
Experimental: Newborn animals received a single pre-emptive injection of R(−)-2,4-diamino-5-(2,3-dichlorophenyl)-6-fluoromethyl pyrimidine, substantially free of the corresponding S(+)enantiomer (4030W92) (10 mg/kg, s/c). Twenty minutes later the animals were anaesthetised by hypothermia, the nerve exposed and transected at the mid thigh level. The extent of neuronal and glial apoptosis was investigated using the TUNEL technique combined with Hoechst 33342 (Sigma) and immunohistochemistry. The ipsilateral and contralateral L5 dorsal root ganglions were compared and the 4030W92 treated group was compared to vehicle treated controls and to animals that received an injection of 4030W92 alone, ie. no nerve transection.

[4] = tested on: mechanical allodynia; assay: CCI mechanical allodynia, Von Frey Hair monofilaments; format: in vivo, rat; conditions: CCI rats, drug administered from day 12, Von Frey Hair monofilaments
Text: as §1
The presence of mechanical allodynia was assessed using Von Frey Hair monofilaments (range:4.19-84.96 g). The rats were lightly restrained and placed upon a metal grid floor. The monofilaments were applied to the plantar surface of the hindpaws from below the grid. The lowest monofilament to produce a withdrawal was the response recorded.

[5] = tested on: motorneuronal apoptotic cell death; conditions: after neonatal axotomy; cited from earlier work

Compound	number of neurones undergoing apoptosis (FIG. 2) [1]	sensory neuronal apoptosis [1]	glial apoptosis [1]	mechanical paw withdrawal threshold [2]	number of apoptotic neurons [3]	Von Frey withdrawal threshold (mechanical allodynia) [4]	motorneuronal apoptotic cell death [5]
Nc1nc(N)c(-c2cccc(Cl)c2Cl)c(CF)n1 (atropisomer, axis not shown) [4030W92, R(−)-2,4-diamino-5-(2,3-dichlorophenyl)-6-fluoromethyl pyrimidine]	decreases	significantly reduced sensory neuronal apoptosis	unaffected	significantly reversed the reduction in thresholds	significant reduction in the number of apoptotic neurons	significantly reversed the reduction in thresholds	
Nc1nc(N)c(-c2cccc(Cl)c2Cl)c(CF)n1 [4082W92, S(+)-2,4-diamino-5-(2,3-dichlorophenyl)-6-fluoromethylpyrimidine]	decreases	significantly reduced sensory neuronal apoptosis	unaffected				
Nc1nnc(-c2cccc(Cl)c2Cl)c(N)n1 [lamotrigine, 3,5-diamino-6-(2,3-dichlorophenyl)-1,2,4-triazine]							can prevent motorneuronal apoptotic cell death
